The source of these data is patent US20220298138A1, “ENZYME INHIBITORS” (KALVISTA PHARMACEUTICALS LIMITED, priority 2019, published 2022).

The target of one experiment is T1, Human FXIa (Homo sapiens, UniProt P03951).
T1 construct: Human FXIa (Enzyme Research Laboratories) was incubated; purchased Enzyme Research Laboratories
The experiment can be described thus: FXIa inhibitory activity in vitro (fluorogenic substrate Z-Gly-Pro-Arg-AFC), selectivity. In kind it is biochemical. To be noted: category scale, 25° C. Here is the method: Determination of the % Inhibition for FXIa
Human FXIa (Enzyme Research Laboratories) was incubated at 25° C. with the fluorogenic substrate Z-Gly-Pro-Arg-AFC and various concentrations of the test compound. Residual enzyme activity (initial rate of reaction) was determined by measuring the change in fluorescence at 410 nm and the IC50 value for the test compound was determined.

The target of a further experiment is T2, Human Factor XIIa (Homo sapiens, UniProt P00748).
T2 construct: purchased Enzyme Research Laboratories
T2 sequence (P00748 373-615 limits assumed): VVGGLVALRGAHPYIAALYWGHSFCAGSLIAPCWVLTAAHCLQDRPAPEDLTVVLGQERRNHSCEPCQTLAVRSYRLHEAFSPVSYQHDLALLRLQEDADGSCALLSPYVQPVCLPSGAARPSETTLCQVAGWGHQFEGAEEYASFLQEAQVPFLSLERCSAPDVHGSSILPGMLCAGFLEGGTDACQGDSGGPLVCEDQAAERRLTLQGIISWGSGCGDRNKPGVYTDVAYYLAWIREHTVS
Description: Factor XIIa inhibitory activity in vitro (fluorogenic substrate H-DPro-Phe-Arg-AFC). The experiment is classed as biochemical. To be noted: 25° C., class symbols, read-out: Human FXIIa IC50. In outline:
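Enzyme incubated at 25° C with fluorogenic substrate H-DPro-Phe-Arg-AFC and a range of compound concentrations. Residual activity taken as initial reaction rate from […], giving IC50.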

T1 sequence (P03951 388-625 limits assumed): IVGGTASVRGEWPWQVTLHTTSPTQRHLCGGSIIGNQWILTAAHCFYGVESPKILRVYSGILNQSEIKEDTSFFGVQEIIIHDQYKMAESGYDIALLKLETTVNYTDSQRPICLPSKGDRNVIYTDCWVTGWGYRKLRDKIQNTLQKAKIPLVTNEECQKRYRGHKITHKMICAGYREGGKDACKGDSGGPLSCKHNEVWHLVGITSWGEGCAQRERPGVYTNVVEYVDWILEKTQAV
T1 sequence (P03951 19-387 partner limits assumed): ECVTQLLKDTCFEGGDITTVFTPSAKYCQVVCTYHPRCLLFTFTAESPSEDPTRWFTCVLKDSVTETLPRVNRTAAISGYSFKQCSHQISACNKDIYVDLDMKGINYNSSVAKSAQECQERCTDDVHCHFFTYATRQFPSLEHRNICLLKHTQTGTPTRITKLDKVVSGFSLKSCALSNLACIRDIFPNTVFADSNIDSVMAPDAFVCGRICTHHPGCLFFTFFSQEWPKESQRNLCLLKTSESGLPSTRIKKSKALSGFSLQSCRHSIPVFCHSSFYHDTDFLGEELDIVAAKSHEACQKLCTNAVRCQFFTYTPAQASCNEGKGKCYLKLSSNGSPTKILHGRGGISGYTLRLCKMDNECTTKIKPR

For the compound `CC(C)c1cncc(C(=O)N[C@@H](Cc2ccc(F)c(F)c2)C(=O)NCc2ccc3c(N)nccc3c2)n1` [Example 0.98], the concentration for half-maximal inhibition (IC50) against Human FXIa was above 40 µM; at Human Factor XIIa it was 10 to 40 µM.
As to `CC(C)c1ccnc(C(=O)N[C@@H](Cc2ccc(F)c(F)c2)C(=O)NCc2ccc3c(N)nccc3c2)n1` [Example 0.99], the 50% inhibitory concentration (IC50) was above 40 µM on Human FXIa and 10 to 40 µM on Human Factor XIIa.
In the case of `CC1CCCC(C)N1CC(=O)N[C@@H](Cc1ccc(F)c(F)c1)C(=O)NCc1ccc2c(N)nccc2c1` (stereo partly shown) [Example 3.01], the IC50 on Human FXIa is above 40 µM; on Human Factor XIIa, 0.1 to 0.279 µM.
In the same order, the values of `C[C@@H]1CCC[C@H](C)N1CC(=O)N[C@@H](Cc1ccc(F)c(F)c1)C(=O)NCc1ccc2c(N)nccc2c1` [Example 3.42, (2S)—N-[(1-aminoisoquinolin-6-yl)methyl]-3-(3,4-difluorophenyl)-2-{2-[(2R,6S)-2,6-dimethylpiperidin-1-yl]acetamido}propanamide] are above 40 µM and 0.03 to 0.1 µM.
For the compound `C[C@H](NC(=O)[C@H](N)CCc1ccccc1)C(=O)NCc1ccc2c(N)nccc2c1` [Example 6.09], the figures for the IC50 against Human FXIa and at Human Factor XIIa were 10 to 40 µM and 0.1 to 0.279 µM, respectively.
In the same order, the values of `CN[C@H](CCc1ccccc1)C(=O)N[C@@H](C)C(=O)NCc1ccc2c(N)nccc2c1` [Example 6.10] are 10 to 40 µM and 0.1 to 0.279 µM.
Turning to `CC(C)N[C@H](CCc1ccccc1)C(=O)N[C@@H](C)C(=O)NCc1ccc2c(N)nccc2c1` [Example 6.11], the values for the IC50 against Human FXIa and on Human Factor XIIa were 3 to 10 µM and 0.28 to 1 µM, respectively.
For the compound `C[C@H](NC(=O)[C@@H](N)CCc1ccccn1)C(=O)NCc1ccc2c(N)nccc2c1` [Example 6.12], the IC50 at Human FXIa was above 40 µM; on Human Factor XIIa, 10 to 40 µM.
Consider `C[C@H](NC(=O)[C@H](N)CCc1ccccn1)C(=O)NCc1ccc2c(N)nccc2c1` [Example 6.13], for which the IC50 was above 40 µM on Human FXIa and 0.28 to 1 µM at Human Factor XIIa.
In the same order, the values of `C[C@H](NC(=O)[C@H](N)CCCCN1CCCCC1)C(=O)NCc1ccc2c(N)nccc2c1` [Example 6.14] are 10 to 40 µM and 1 to 3 µM.
As to `C[C@H](NC(=O)[C@H](N)CCc1ccncc1)C(=O)NCc1ccc2c(N)nccc2c1` [Example 6.15], the IC50 at Human FXIa is above 40 µM; at Human Factor XIIa it was 3 to 10 µM.
Consider `C[C@H](NC(=O)[C@H](N)COCc1ccccc1)C(=O)NCc1ccc2c(N)nccc2c1` [Example 6.16], for which the IC50 at Human FXIa and on Human Factor XIIa was 10 to 40 µM in each case.
Consider `C[C@H](NC(=O)[C@H](N)COc1ccccc1)C(=O)NCc1ccc2c(N)nccc2c1` [Example 6.17], for which the IC50 against Human FXIa and at Human Factor XIIa was 10 to 40 µM in each case.
Regarding `C[C@H](NC(=O)[C@H](N)CCCc1ccccc1)C(=O)NCc1ccc2c(N)nccc2c1` [Example 6.18], the IC50 against Human FXIa and at Human Factor XIIa was 3 to 10 µM throughout.
With `C[C@H](NC(=O)[C@@H](CCc1ccccc1)NC1CCCCC1)C(=O)NCc1ccc2c(N)nccc2c1` [Example 6.19], the values for the IC50 against Human FXIa and at Human Factor XIIa were 0.3 to 1 µM and 0.03 to 0.1 µM, respectively.
In the case of `C[C@H](NC(=O)[C@@H](CCc1ccccc1)NS(C)(=O)=O)C(=O)NCc1ccc2c(N)nccc2c1` [Example 6.20], the IC50 against Human FXIa was in the range of 0.3 to 1 µM; at Human Factor XIIa it was 0.28 to 1 µM.
`CC(NC(=O)[C@H](N)CCc1ccccc1)C(=O)NCc1ccc2ccnc(N)c2c1` (stereo partly shown) [Example 6.21]: the IC50 was above 40 µM on Human FXIa and 10 to 40 µM at Human Factor XIIa.
For the compound `COc1cc2c(N)nccc2cc1CNC(=O)[C@H](C)NC(=O)[C@H](N)CCc1ccccc1` [Example 6.22], the values for the IC50 on Human FXIa and on Human Factor XIIa were 3 to 10 µM and 10 to 40 µM, respectively.
`C[C@H](NC(=O)[C@@H](CCc1ccccc1)N1CCCC1)C(=O)NCc1ccc2c(N)nccc2c1` [Example 6.23]: the IC50 against Human FXIa is above 40 µM; on Human Factor XIIa it was 0.1 to 0.279 µM.
`C[C@H](NC(=O)[C@H](O)CCc1ccccc1)C(=O)NCc1ccc2c(N)nccc2c1` [Example 6.24]: the IC50 against Human FXIa and on Human Factor XIIa was 10 to 40 µM throughout.
Take `C[C@H](NC(=O)[C@@H](CCc1ccccc1)NC(=O)OC(C)(C)C)C(=O)NCc1ccc2c(N)nccc2c1` [Example 6.25]: the figures for the IC50 at Human FXIa and at Human Factor XIIa were 10 to 40 µM and 3 to 10 µM, respectively.
With `C[C@H](NC(=O)[C@H](N)CCc1ccccc1)C(=O)NCc1cnc2[nH]cc(Cl)c2c1` [Example 9.01], the half-maximal inhibitory concentration (IC50) lay within 10 to 40 µM against Human FXIa and 0.28 to 1 µM on Human Factor XIIa.
As to `C[C@H](NC(=O)[C@H](N)CCc1ccccc1)C(=O)N[C@@H]1CCc2c1ccnc2N` [Example 9.02], the figures for the IC50 on Human FXIa and at Human Factor XIIa were above 40 µM and 0.28 to 1 µM, respectively.
In the same order, the values of `CC(C)N[C@H](CCc1ccccc1)C(=O)N[C@@H](C)C(=O)NCc1cnc2[nH]cc(Cl)c2c1` [Example 9.03] are above 40 µM and 1 to 3 µM.
`C[C@H](NC(=O)[C@H](N)CCc1ccccc1)C(=O)NCc1ccc2[nH]cc(Cl)c2c1` [Example 9.04]: the half-inhibitory concentration (IC50) against Human FXIa is above 40 µM; at Human Factor XIIa, 3 to 10 µM.
Regarding `COc1ccc(-n2ccc(C(F)(F)F)n2)c(CNC(=O)[C@H](C)NC(=O)[C@@H](N)CCc2ccccc2)c1F` [Example 9.05], the IC50 was 1 to 3 µM at Human FXIa and 10 to 40 µM on Human Factor XIIa.
On to `Cc1c(CNC(=O)[C@H](C)NC(=O)[C@H](N)CCc2ccccc2)ccc2c(N)nccc12` [Example 9.06], for which the IC50 fell in the range of 10 to 40 µM against Human FXIa and 0.1 to 0.279 µM on Human Factor XIIa.
Turning to `C[C@H](NC(=O)[C@H](N)CCc1ccccc1)C(=O)NCc1cc2c(N)nccc2s1` [Example 9.07, (2R)—N-[(1S)-1-[({4-Aminothieno[3,2-c]pyridin-2-yl}methyl)carbamoyl]ethyl]-2-amino-4-phenylbutanamide], the IC50 was above 40 µM against Human FXIa and 0.1 to 0.279 µM at Human Factor XIIa.
In the same order, the values of `CC(C)N[C@H](CCc1ccccc1)C(=O)N[C@@H](C)C(=O)NCc1ccc2[nH]cc(Cl)c2c1` [Example 9.08] are 10 to 40 µM and 1 to 3 µM.
Turning to `CC(C)N[C@H](CCc1ccccc1)C(=O)N[C@@H](C)C(=O)NCc1cc2c(N)nccc2o1` [Example 9.24], the figures for the IC50 on Human FXIa and at Human Factor XIIa were above 40 µM and 0.1 to 0.279 µM, respectively.
In the same order, the values of `CC(C)N[C@H](CCc1ccccc1)C(=O)N[C@@H](C)C(=O)NCc1cc2c(N)nccc2s1` [Example 9.27, (2R)—N-[(1S)-1-[({4-Aminothieno[3,2-c]pyridin-2-yl}methyl)carbamoyl]ethyl]-2-(isopropylamino)-4-phenylbutanamide] are above 40 µM and 0.03 to 0.1 µM.
In the same order, the values of `CC(C)N[C@H](CCCCN1CCCCC1)C(=O)N1CC[C@H]1C(=O)NCc1ccc2[nH]cc(Cl)c2c1` [Example 10.01, (2S)—N-[(3-Chloro-1H-indol-5-yl)methyl]-1-[(2R)-2-(isopropylamino)-6-(piperidin-1-yl)hexanoyl]azetidine-2-carboxamide] are 10 to 40 µM and 0.03 to 0.1 µM.
`N[C@H](CCc1ccccc1)C(=O)N1CCC1C(=O)NCc1cnc2[nH]cc(Cl)c2c1` (stereo partly shown) [Example 10.02]: the figures for the IC50 against Human FXIa and at Human Factor XIIa were above 40 µM and 0.28 to 1 µM, respectively.
`N[C@H](CCCCN1CCOCC1)C(=O)N1CC[C@H]1C(=O)NCc1cnc2[nH]cc(Cl)c2c1` [Example 10.03]: the IC50 on Human FXIa was above 40 µM; on Human Factor XIIa it was 0.28 to 1 µM.
Consider `N[C@H](CCCCN1CCC(F)(F)C1)C(=O)N1CC[C@H]1C(=O)NCc1cnc2[nH]cc(Cl)c2c1` [Example 10.04], for which the concentration for half-maximal inhibition (IC50) against Human FXIa was above 40 µM; on Human Factor XIIa it was 0.28 to 1 µM.
As for `CC(C)N[C@H](CCCCN1CCOCC1)C(=O)N1CC[C@H]1C(=O)NCc1cnc2[nH]cc(Cl)c2c1` [Example 10.05], the IC50 is above 40 µM on Human FXIa and 0.28 to 1 µM on Human Factor XIIa.
As to `N[C@H](CCCCO)C(=O)N1CC[C@H]1C(=O)NCc1ccc2[nH]cc(Cl)c2c1` [Example 10.06], the IC50 was above 40 µM against Human FXIa and 10 to 40 µM at Human Factor XIIa.
In the same order, the values of `CC(C)N[C@H](CCCCN1CCCCC1)C(=O)N1C[C@@H](c2ccc(F)c(F)c2)[C@H]1C(=O)NCc1ccc2[nH]cc(Cl)c2c1` [Example 10.07] are above 40 µM and 0.28 to 1 µM.
Consider `N[C@H](CCCCN1CCN(c2ncccn2)CC1)C(=O)N1CC[C@H]1C(=O)NCc1ccc2[nH]cc(Cl)c2c1` [Example 10.08], for which the results for the concentration for half-maximal inhibition (IC50) on Human FXIa and at Human Factor XIIa were above 40 µM and 3 to 10 µM, respectively.
For `N[C@H](CCCCN1CCc2ccccc2C1)C(=O)N1CC[C@H]1C(=O)NCc1ccc2[nH]cc(Cl)c2c1` [Example 10.09], the IC50 is above 40 µM on Human FXIa and 1 to 3 µM on Human Factor XIIa.
As for `N[C@H](CCCCN1Cc2ccccc2C1)C(=O)N1CC[C@H]1C(=O)NCc1ccc2[nH]cc(Cl)c2c1` [Example 10.10], the IC50 was above 40 µM against Human FXIa and 1 to 3 µM at Human Factor XIIa.
`CC(C)N[C@H](CCCCN1Cc2ccccc2C1)C(=O)N1CC[C@H]1C(=O)NCc1ccc2[nH]cc(Cl)c2c1` [Example 10.11]: the IC50 against Human FXIa is 10 to 40 µM; at Human Factor XIIa, 0.28 to 1 µM.
As for `N[C@H](CCCCN1CCC(F)(F)CC1)C(=O)N1CC[C@H]1C(=O)NCc1ccc2[nH]cc(Cl)c2c1` [Example 10.12], the results for the IC50 against Human FXIa and on Human Factor XIIa were above 40 µM and 1 to 3 µM, respectively.
As to `N[C@H](CCCCn1ccnc1)C(=O)N1CC[C@H]1C(=O)NCc1ccc2[nH]cc(Cl)c2c1` [Example 10.13], the IC50 against Human FXIa was above 40 µM; at Human Factor XIIa, 3 to 10 µM.

As usually defined, the IC50 is the concentration at which inhibition is half-maximal.
